We go through one compound from patent US8227515B2, “Use of hydroxamic acid derivatives for the preparation of anti-tumour medicaments” (Italfarmaco S.p.A., priority 2003, dated 2012).

For one experiment, the system named is KG-1 (myeloid leukaemia). The experiment in a line: Tritiated thymidine incorporation, tumour cell growth inhibition. In kind it is cell-based. Particulars: 48 hours with compound, read-out: IC50 (50% cell growth inhibition). Here is the method:
(§1) The anti-tumour effect of the compound of example 12 of EP 901465, 4-[6-(diethylaminomethyl)naphth-2-ylmethyloxycarbamoyl)] benzohydroxamic acid hydrochloride (ITF 2357), was tested in vitro by measuring the capacity of the compound to inhibit the growth of tumour cell lines of different histotype deriving from both solid tumours and haematological tumours. The cell lines used were: A549 (pulmonary carcinoma), MDA-MB435 (breast carcinoma) and KG-1 (myeloid leukaemia).
[…] KG-1 cells, grown in RPMI 1640 culture medium, supplemented with 5% fetal calf serum, were seeded in 96 wells-flat bottom-plates (250000 cells/well). ITF 2357 at various doses was immediately added and after 36 hours tritiated thymidine was added to each well (1 μCi/well) and left therein for the following 12 hours. At the end the cells were collected by a cell harvester and the radioactivity contained in each sample which is directly proportionated to DNA synthesis and therefore to cell proliferation was measured by a liquid scintillation beta counter.
(§2) The effect of different doses of ITF 2357 was measured as percent of inhibition of radioactivity incorporation compared with untreated control cells. […]

Experiment [1] concerns MDA-MB435 (breast carcinoma). The experiment is described as above. Particulars: Homo sapiens, MDA-MB-435, 48 hours with compound, read-out: IC50 (50% cell growth inhibition). The experiment is classed as cell-based. Here is the method: as §1
(§3) A549 and MDA-MB435 cells (respectively grown in E-MEM and D-MEM culture medium, supplemented with 10% of fetal calf serum) were seeded on 96 wells-flat bottom-plates (5000 cells/well) and allowed to adhere for 4 hours at 37° C. under 5% CO2 atmosphere. Thereafter ITF 2357 at various doses was added to each well (4 replicates). […]
(§4) […] At the end the cells were collected by a cell harvester and the radioactivity contained in each sample which is directly proportionated to DNA synthesis and therefore to cell proliferation was measured by a liquid scintillation beta counter.
as §2

In experiment [2] the test system is A549 (pulmonary carcinoma). Described as above. The experiment is classed as cell-based. As to conditions: Homo sapiens, 48 hours with compound, read-out: IC50 (50% cell growth inhibition). Here is the method: as §1, §3, §4, §2
The subject of the next experiment is murine melanoma B16-BL6. The experiment is described as follows: Growth of subcutaneous murine melanoma B16-BL6 in vivo. Further details: species or system mouse C57BL/6. Particulars: female C57BL/6 mice, oral, daily 6 days a week. The text has this: The anti-tumour effect of ITF 2357 was studied measuring the capacity of the compound to reduce the growth of the murine melanoma B16-BL6. B16-BL6 tumour is a highly metastatic variant (Sciumbata T. et al. Invasion and Metastasis 1996; 16: 132-143) of the native tumour B16 and it grows subcutaneously in the syngenic mouse C57BL/6 (Gutman M et al. Cancer Biother. 1994; 9(2): 163-170). B16-BL6 tumour cells were inoculated subcutaneously in female C57BL/6 mice (10 animals/group, weight 20-22 grams) at the dose of 2×10^5 cells/mouse. ITF 2357 dissolved in water was administered orally, at the indicated doses, 10 minutes before the inoculum of the tumour cells and then daily for 6 days a week. The tumour growth was expressed as tumour weight, measuring twice a week, by means of a calibre, the two perpendicular diameters of the nodules. The weight was calculated according to the formula: (diameter 1×diameter 2)^2/2 as described in Giavazzi R. et al. Cancer Res. 1986; 46: 1928-1933.

Another experiment relates to Colo38 (Melanoma). The experiment is described as follows: Sulforhodamine B viable cell assay, 72 hours. The experiment is classed as cell-based. As to conditions: Homo sapiens. The procedure: (§5) Cell lines derived from human solid tumours of different histotype and stabilised in vitro were used in the following experiment. In particular, three cell lines from head and neck tumours (KB, Ca127 and Hep2), two cell lines derived from colon carcinomas (HT-29 and LoVo) and four cell lines derived from melanomas (Colo38, Pes41, Pes43 and Anad) were studied.
(§6) The cells were grown according to conventional methods in flasks containing synthetic culture medium added with fetal serum, at 37° C. under 5% CO2 atmosphere, then seeded in 96 wells plates and allowed to adhere for some hours. ITF 2357 was added in triplicate at increasing doses to each well and the cells were incubated for further 72 hours. Viable cells were labelled by dyeing with sulforhodamine B and their amount was determined by spectrophotometric evaluation of the dye content in each well. The effect of ITF 2357 was calculated as percentage of inhibition, at each concentration, of the dye incorporation in wells containing ITF 2357 compared with control wells (cells without drug). IC50 values of ITF 2357 were calculated by Software Calcusyn (Biosoft) according to dose-response curves.

The subject of a further experiment is HT-29 (Colon carcinoma). The experiment in a line: Sulforhodamine B viable cell assay, 72 hours. The experiment is classed as cell-based. Particulars: Homo sapiens. The procedure: as §5, §6
For a further experiment, the system named is KB (Head-neck). The experiment is described as follows: Sulforhodamine B viable cell assay, 72 hours. Particulars: Homo sapiens. In kind it is cell-based. The procedure: as §5, §6
In a further experiment the test system is LoVo (Colon carcinoma). The experiment in a line: Sulforhodamine B viable cell assay, 72 hours. In kind it is cell-based. As to conditions: Homo sapiens. Here is the method:
as §5, §6

Another experiment concerns Anad (Melanoma). The experiment in a line: Sulforhodamine B viable cell assay, 72 hours. As to conditions: Homo sapiens. The experiment is classed as cell-based. Here is the method:
as §5, §6

The test system of another experiment is Pes43 (Melanoma). The experiment is described as follows: Sulforhodamine B viable cell assay, 72 hours. In kind it is cell-based. Particulars: Homo sapiens. The procedure: as §5, §6
A further experiment concerns Cal27 (Head-neck). The experiment in a line: Sulforhodamine B viable cell assay, 72 hours. Particulars: Homo sapiens, CAL-27. The experiment is classed as cell-based. Here is the method: as §5, §6
A further experiment concerns Pes41 (Melanoma). The experiment is described as follows: Sulforhodamine B viable cell assay, 72 hours. As to conditions: Homo sapiens. The experiment is classed as cell-based. Here is the method: as §5, §6
The test system of the next experiment is Hep-2 (Head-neck). The experiment is described as follows: Sulforhodamine B viable cell assay, 72 hours. In kind it is cell-based. Particulars: Homo sapiens. The procedure:
as §5, §6

Where a name gives a salt, the structure may show the parent alone.

As usually defined, the IC50 is the midpoint of a concentration-inhibition curve. Consider `CCN(CC)Cc1ccc2cc(COC(=O)Nc3ccc(C(=O)NO)cc3)ccc2c1` [ITF 2357, 4-[6-(diethylaminomethyl)naphth-2-ylmethyloxycarbamoyl)] benzohydroxamic acid hydrochloride], for which the IC50 is 0.552 µM with KG-1 (myeloid leukaemia); 0.073 µM in experiment [1]; 0.495 µM in [2]; 2.38 µM in the experiment with Colo38 (Melanoma); 0.7 µM in the experiment on HT-29 (Colon carcinoma); 0.64 µM in the experiment on KB (Head-neck). For the same compound, the IC50 was determined as 2.5 µM in the experiment on LoVo (Colon carcinoma); 5.7 µM with Anad (Melanoma); 1.4 µM in the experiment with Pes43 (Melanoma); 3.4 µM with Cal27 (Head-neck); 1.6 µM with Pes41 (Melanoma); 1 µM in the experiment with Hep-2 (Head-neck). Moreover, the “effect on the tumour growth” value in the experiment with murine melanoma B16-BL6 is reported as “dose-dependent inhibitory effect”. In addition, the “reduction of the volume of the tumoural nodule” value in the experiment on murine melanoma B16-BL6 (after 15 days of treatment) was “about 50%”.
